According to article PMC3135650 (Molecular pharmaceutics, 2009):
Entries after “also recorded” stand apart in the source; their conditions may differ. One block for each compound: values may come before it.

Assays:
BCRP [1] = details: read-out: Ki or IC50 values for BCRP; cited from earlier work
Caco-2 cells = details: 10 µM FTC; cited from earlier work
Bcrp [2] = details: cited from earlier work
Bcrp [3] = target: T1, Bcrp (Rattus norvegicus, UniProt Q80W57); test: Biliary excretion; assay type: in vitro ADME; details: 10 min; for Nitrofurantoin BEI, % of control (Ad-siNT) / Nitrofurantoin in vitro Clbiliary, % of control (Ad-siNT): 5 µM nitrofurantoin
T1 sequence (Q80W57 1-657): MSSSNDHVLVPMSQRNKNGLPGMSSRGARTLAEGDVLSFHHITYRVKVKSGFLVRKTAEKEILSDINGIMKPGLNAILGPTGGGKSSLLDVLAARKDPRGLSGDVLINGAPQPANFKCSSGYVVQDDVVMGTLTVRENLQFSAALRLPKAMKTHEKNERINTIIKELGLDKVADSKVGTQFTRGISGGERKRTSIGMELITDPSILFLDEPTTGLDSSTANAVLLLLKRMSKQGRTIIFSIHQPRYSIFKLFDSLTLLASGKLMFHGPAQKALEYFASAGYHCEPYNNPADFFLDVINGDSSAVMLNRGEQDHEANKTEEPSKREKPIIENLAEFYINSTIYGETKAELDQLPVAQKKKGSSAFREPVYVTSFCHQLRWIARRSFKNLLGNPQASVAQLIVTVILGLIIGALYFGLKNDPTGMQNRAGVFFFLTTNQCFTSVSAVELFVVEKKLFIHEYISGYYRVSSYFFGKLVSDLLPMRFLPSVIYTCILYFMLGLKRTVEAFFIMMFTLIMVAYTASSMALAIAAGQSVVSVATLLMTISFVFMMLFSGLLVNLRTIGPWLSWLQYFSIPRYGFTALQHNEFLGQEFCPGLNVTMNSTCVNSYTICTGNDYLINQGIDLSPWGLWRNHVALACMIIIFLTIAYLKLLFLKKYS

P-gp = details: 2 µM GF120918, SCRH; cited from earlier work
Bcrp [4] = target: T1, Bcrp; test: GF120918 inhibition of nitrofurantoin biliary excretion in SCRH
[5] = tested on: sandwich-cultured rat hepatocytes (SCRH); details: 10-min incubation; digoxin 1 µM, nitrofurantoin 5 µM
[6] = day 4 Ad-si01Bcrp-infected SCRH
[7] = day 6 Ad-si01Bcrp-infected SCRH
[8] = 2 µM GF120918, 5 µM nitrofurantoin, 10 min, day 4 SCRH
[9] = 2 µM GF120918, 5 µM nitrofurantoin, 10 min, day 4 SCRH, data not shown

Structure (SMILES): COc1ccc2c3c([nH]c2c1)[C@H](C=C(C)C)N1C(=O)[C@@H]2CCCN2C(=O)[C@@H]1C3 [FTC, fumitremorgin C]
IC50 (BCRP [1]): 300 to 1300 nM | Effect on digoxin transport in Caco-2 cells (Caco-2 cells): inhibited

Nitrofurantoin accumulation in cells + BC versus control (Ad-siNT) (Bcrp [3]; Ad-si01Bcrp-infected SCRH, 5 µM): similar | Nitrofurantoin BEI, % of control (Ad-siNT) (Bcrp [3]; [6]): ~ 24 % of control | Nitrofurantoin in vitro Clbiliary, % of control (Ad-siNT) (Bcrp [3]; [6]): ~ 27 % of control | Nitrofurantoin BEI, % of control (Ad-siNT) (Bcrp [3]; [7]): 11 % of control | Nitrofurantoin in vitro Clbiliary, % of control (Ad-siNT) (Bcrp [3]; [7]): 14 % of control
Structure (SMILES): O=C1CN(/N=C/c2ccc([N+](=O)[O-])o2)C(=O)N1 [nitrofurantoin]
Nitrofurantoin biliary excretion in Abcg2-knockout mice (Bcrp [2]): almost completely abolished | Cellular accumulation of nitrofurantoin versus control (Ad-siNT) (Bcrp [3]; Ad-si01Bcrp-infected day 4 and day 6 SCRH, 5 µM): increased markedly; also recorded: significantly increased

Effect on cellular accumulation of nitrofurantoin (Bcrp [4]; [8]): significantly increased | Effect on nitrofurantoin accumulation in cells + BC (Bcrp [4]; [8]): did not affect | Nitrofurantoin BEI in presence of inhibitor, % of control (Bcrp [4]; [9]): ~ 8 % of control | Nitrofurantoin in vitro Clbiliary in presence of inhibitor, % of control (Bcrp [4]; [9]): ~ 8 % of control | Inhibition of nitrofurantoin biliary excretion (Bcrp [4]; 2 µM GF120918, SCRH): almost completely inhibited
Structure (SMILES): COc1cc2c(cc1OC)CN(CCc1ccc(NC(=O)c3cccc4c(=O)c5cccc(OC)c5[nH]c34)cc1)CC2 [GF120918, N-(4-[2-(1,2,3,4-tetrahydro-6,7-dimethoxy-2-isoquinolinyl)ethyl]-phenyl)-9,10-dihydro-5-methoxy-9-oxo-4-acridine carboxamide]
P-gp-mediated biliary excretion of digoxin, % of control (P-gp): ~ 25 % of control

Accumulation in cells + BC and cells, day 6 versus day 4 SCRH [5]: lower
Structure (SMILES): C[C@H]1O[C@@H](O[C@H]2[C@@H](O)C[C@H](O[C@H]3[C@@H](O)C[C@H](O[C@H]4CC[C@@]5(C)[C@H](CC[C@@H]6[C@@H]5C[C@@H](O)[C@]5(C)[C@@H](C7=CC(=O)OC7)CC[C@]65O)C4)O[C@@H]3C)O[C@@H]2C)C[C@H](O)[C@@H]1O [digoxin]
Effect of Bcrp knockdown on digoxin accumulation (cells + BC or cells), BEI or in vitro Clbiliary (Bcrp [3]; Ad-si01Bcrp-infected day 4 or day 6 SCRH, 1 µM digoxin): unaffected; also recorded: did not affect
